Key:
[1] = tested on: HCEC monolayers; experiment: Transport across the in vitro blood brain barrier model; format: cell-based, human; conditions: for effect on FC5 transport across the in vitro BBB model: 30 minutes preincubation
Description: HCEC (80,000 cells/membrane) were seeded on a 0.5% gelatin coated Falcon tissue culture inserts (pore size-1 μm; surface area 0.83 cm^2) in 1 ml of growth medium. The bottom chamber of the insert assembly contained 2 ml of growth medium supplemented with the fetal human astrocyte-conditioned medium in a 1:1 (v/v) ratio (Muruganandam et al., 1997).
Transport studies were performed 7 days post-seeding as described previously (Muruganandam et al., 1997; Muruganandam et al., 2002). Filter inserts were rinsed with transport buffer [phosphate buffered saline (PBS) containing 5 mM glucose, 5 mM MgCl2, 10 mM HEPES, 0.05% bovine serum albumin (BSA), pH 7.4] and allowed to equilibrate at 37° C. for 30 minutes. Experiments were initiated by adding 10 μg/ml FC5 to either apical or basolateral side of inserts containing either 0.5% gelatin-coated inserts without cells, control HCEC or HCEC pre-exposed to various pharmacological modulators for 30 min. Transport studies were conducted at 37° C. with plates positioned on a rotating platform stirring at 30-40 rpm. Aliquots (100 μl) were collected from the opposite chamber at various time intervals (5, 15, 30, 60, 90 minutes) and replaced with fresh buffer. The amount of FC5 transported across empty inserts or HCEC monolayers was determined by enzyme linked immunosorbent assay (ELISA) (see below). To control for HCEC membrane integrity and to estimate paracellular diffusion, the apical-to-basolateral and basolateral-to-apical clearance rates of [^14C]-sucrose were determined and calculated essentially as described previously (Muruganandam et al., 2002; Garberg et al., 2005) across the same monolayers used for FC5 transport studies. Sample-associated radioactivity in 50 μl aliquots was measured using a Mircobeta Trilux liquid scintillation counter (Wallac, Finland).
Clearance was calculated as Cl (ml)=CA/CI×VA, where CI is the initial tracer or sdAb concentration in the donor chamber, CA is the tracer or sdAb concentration in the accepter chamber, and VA is the volume of the acceptor chamber. […] The effects of pharmacological agents on FC5 transmigration was subsequently assessed at 30 min.
To measure the amount of FC5 transmigrated across the in vitro BBB model, 50 μl aliquots collected from the appropriate compartment were immobilized overnight at room temperature in a HisGrab nickel coated 96-well plate (Pierce). After blocking the plates with 2% BSA for 2 hours at room temperature, anti-c-Myc monoclonal antibody conjugated to HRP was added at a dilution of 1:5000 for 1 hour. After washing, the bound FC5 was detected with tetramethylbenzidine (TMB)/hydrogen peroxide substrate system. The signal was measured at […] on a microtiter plate reader. FC5 concentrations in collected aliquots were determined from a standard curve constructed using known FC5 concentrations.

[2] = tested on: HCEC; experiment: Uptake into human cerebromicrovascular endothelial cells (immunofluorescence); format: cell-based; conditions: data not shown; for effect on FC5 uptake into HCEC: 30 minutes preincubation
Description: The uptake of FC5 into HCEC was tested 15-90 minutes after adding 5 μg/ml of FC5 in the absence or presence of various pharmacological modulators of endocytosis. To visualize the intracellular distribution of FC5, cells were fixed, permeabilized and probed with the anti-c-myc antibody (1:100; 1 hour) followed by incubation with FITC-labeled anti-mouse IgG (1:250; 1 hour).

[3] = 5 μg/ml, 30 minutes pretreatment

Molecule: O=c1c(-c2ccc(O)cc2)coc2cc(O)cc(O)c12 [genistein]
- effect on FC5 transcytosis across HCEC ([1]; genistein 50 μM, 30 minutes pre-incubation): not affected

Molecule: CCCC(=O)Nc1ncnc2c1ncn2[C@@H]1O[C@@H]2COP(=O)(O)O[C@H]2[C@H]1OC(=O)CCC [db-cAMP, dibutyryl-cAMP]
- effect on FC5 transcytosis across HCEC ([1]; db-cAMP 500 μM, 30 minutes pre-incubation): not affected

Molecule: CN(C)CCCn1cc(C2=C(c3c[nH]c4ccccc34)C(=O)NC2=O)c2ccccc21 [BIM-1, bisindolyl-maleimide-1]
- reduction of FC5 transcytosis across HCEC ([1]; BIM-1 5 μM, 30 minutes pre-incubation): 25%

Molecule: O=CC[C@@H](O)[C@H](O)[C@H](O)CO [2-deoxyglucose]
- effect on FC5 transmigration ([1]; 5 mM sodium azide and 5 mM 2-deoxyglucose together, 30 min, glucose-free medium): near-complete inhibition

Molecule: heparin sulfate
- effect on FC5 transcytosis across the BBB in vitro ([1]; heparin sulfate 50 U/ml pre-incubation): did not affect

Molecule: C[C@@H]1O[C@@H](O[C@H]2C[C@@H](O)[C@]3(CO)[C@H]4[C@H](O)C[C@]5(C)[C@@H](C6=CC(=O)OC6)CC[C@]5(O)[C@@H]4CC[C@]3(O)C2)[C@H](O)[C@H](O)[C@H]1O [ouabain]
- reduction of FC5 transport across HCEC ([1]; ouabain 1 μM, 30 minutes pretreatment): 40%

Molecule: CC[C@@]1([C@@H]2O[C@@H]([C@H]3O[C@@](O)(CO)[C@H](C)C[C@@H]3C)C[C@@H]2C)CC[C@H]([C@]2(C)CC[C@]3(C[C@H](O)[C@@H](C)[C@@H]([C@@H](C)[C@@H](OC)[C@H](C)C(=O)O)O3)O2)O1 [Monensin, monensin]
- inhibition at 25 µM ([1]; Homo sapiens, HCEC, 0.5 h, monensin 25 μM, 30 minutes, 10 μg/ml FC5, read-out: inhibition of FC5 transcytosis across HCEC): 34%

Molecule: COC(=O)Nc1nc2ccc(C(=O)c3cccs3)cc2[nH]1 [nocodazole]
- effect on FC5 transcytosis ([1]; 20 μM, 30 minutes pre-incubation): did not interfere

Molecule: C[C@@H]1[C@H](O)[C@@H](C)/C=C/C=C/CC/C=C/C=C/C=C/C=C/C(O[C@H]2O[C@H](C)[C@@H](O)[C@H](N)[C@@H]2O)CC2O[C@](O)(CC(O)C(O)CCC(O)CC(O)CC(O)CC(=O)O[C@H]1C)CC(O)C2C(=O)O (stereo partly shown) [nystatin]
- effect on FC5 transmigration across in vitro BBB model [1, 3]: None of the caveolae-mediated endocytosis inhibitors tested affected

Molecule: holo-transferrin
- effect on FC5 uptake ([2]; 100-fold excess of holo-transferrin): not reduced
- effect on FC5 transendothelial transport ([1]; 100-fold excess (1 mg/ml) of holo-transferrin, 10 μg/ml FC5, 30 minutes): not reduced

Molecule: mannan
- effect on FC5 transmigration ([1]; mannan 1 mg/ml): did not affect

Molecule: poly-L-lysine
- effect on FC5 uptake into HCEC ([2]; poly-L-lysine 300 μM): Neither compound affected
- effect on FC5 transport across the in vitro BBB model ([1]; poly-L-lysine 300 μM): Neither compound affected

Molecule: CN(C)CCCN1c2ccccc2Sc2ccc(Cl)cc21 [chlorpromazine]
- inhibition at 50 µg/mL ([1]; Homo sapiens, HCEC, chlorpromazine 50 μg/ml, 30 minutes pretreatment, read-out: inhibition of FC5 transmigration across in vitro BBB model): 52%

Molecule: protamine sulfate
- effect on FC5 uptake into HCEC ([2]; protamine sulfate 40 μg/ml): Neither compound affected
- effect on FC5 transport across the in vitro BBB model ([1]; protamine sulfate 40 μg/ml): Neither compound affected

Molecule: methyl-β-cyclodextrin
- effect on FC5 transmigration across in vitro BBB model ([1]; methyl-β-cyclodextrin 5 mM, 30 minutes pretreatment): None of the caveolae-mediated endocytosis inhibitors tested affected

Molecule: N=C(N)NC(=O)c1nc(Cl)c(N)nc1N [amiloride]
- effect on transendothelial migration of FC5 ([1]; amiloride 500 μM): no effect

Molecule: chondroitin sulfate C
- effect on FC5 transcytosis across the BBB in vitro ([1]; 10 μg/ml pre-incubation): did not affect

Molecule: CCCCC[C@@H](O)[C@H]1C(=O)O[C@H](C)[C@@H](O)/C=C/C=C/C=C/C=C/C=C(\C)[C@@H](O)C[C@H](O)C[C@H](O)C[C@H](O)C[C@H](O)C[C@H](O)C[C@@H]1O [filipin]
- effect on FC5 transmigration across in vitro BBB model [1, 3]: None of the caveolae-mediated endocytosis inhibitors tested affected

Molecule: chondroitin sulfate A
- effect on FC5 transcytosis across the BBB in vitro ([1]; 10 μg/ml pre-incubation): did not affect
